Experimental data published in paper PMC6487263, “Kinetic and structural analysis of human ALDH9A1” (Bioscience Reports, 2019).

Tests used:
[1] = target: T1, human ALDH9A1 (HsALDH9A1) (Homo sapiens, UniProt P49189); test: microscale thermophoresis, RED-tris-NTA labelled His-tagged enzyme; type: binding
T1 construct: full-length 494-residue protein, His-tag kept (pCDFDuet, BamHI/XhoI), recombinant from E. coli; silent polymorphism at Ile110 codon
Description: microscale thermophoresis, RED-tris-NTA labelled His-tagged enzyme on human ALDH9A1 (HsALDH9A1)

[2] = target: T1, human ALDH9A1 (HsALDH9A1); test: NADH formation at […] nm, partial substrate inhibition fit; type: biochemical; conditions: substrate inhibition constant; 1 mM NAD+, 150 mM sodium pyrophosphate pH 7.5, 30 °C
[3] = target: T1, human ALDH9A1 (HsALDH9A1); test: nanoDSF (Tycho NT.[…]); type: binding; conditions: 150 mM Tris/HCl pH 7.5, apoenzyme reference 69.5 °C
[4] = target: T1, human ALDH9A1 (HsALDH9A1); test: microscale thermophoresis; type: binding

T1 sequence (P49189 whole entry): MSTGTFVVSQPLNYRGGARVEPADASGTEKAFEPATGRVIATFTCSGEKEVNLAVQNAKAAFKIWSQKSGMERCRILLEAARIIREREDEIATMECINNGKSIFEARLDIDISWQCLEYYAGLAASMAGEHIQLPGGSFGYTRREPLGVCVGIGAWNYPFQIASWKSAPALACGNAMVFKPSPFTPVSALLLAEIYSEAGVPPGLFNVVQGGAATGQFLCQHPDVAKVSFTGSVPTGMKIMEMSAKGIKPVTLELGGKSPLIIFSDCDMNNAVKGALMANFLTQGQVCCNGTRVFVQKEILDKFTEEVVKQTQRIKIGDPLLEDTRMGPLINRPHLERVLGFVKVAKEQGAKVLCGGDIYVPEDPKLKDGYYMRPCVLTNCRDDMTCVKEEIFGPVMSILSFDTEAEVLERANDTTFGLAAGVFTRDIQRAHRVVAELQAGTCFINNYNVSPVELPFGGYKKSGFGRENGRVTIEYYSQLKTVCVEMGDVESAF

Kd [1] [µM]	Ki [2] [µM]	SMILES	also measured
171 ± 35	–	C[N+](C)(C)CC=O [BAL]	–
–	7230 ± 1650	N=C(N)NCCCC=O [GBAL]	–
16 ± 3	–	NC(=O)c1ccc[n+]([C@@H]2O[C@H](COP(=O)([O-])OP(=O)(O)OC[C@H]3O[C@@H](n4cnc5c(N)ncnc54)[C@H](O)[C@@H]3O)[C@@H](O)[C@H]2O)c1 [NAD^+]	Tm ([3]; 5 mM ligand): 69.5 °C
6 ± 3	2200 ± 590	C[N+](C)(C)CCCC=O [TMABAL, 4-(trimethylamino)butyraldehyde]	Tm ([3]; 5 mM ligand): 63 °C
–	–	C[N+](C)(C)CCCC(=O)[O-] [TMABA]	Kd [4]: 2600 ± 200 µM; Tm ([3]; 10 mM ligand): 66 °C
–	470 ± 45	C[N+](C)(C)CCC=O [TMAPAL, 3-(trimethylamino)propionaldehyde]	–

SMILES	Kd [1] [µM]	Ki [2] [µM]	also measured
CN(C)CCCC=O [DMABAL]	–	10880 ± 1350	–
